Source: US9296691B2, “Inhibitors of p75 receptor and their uses” (Horacio Uri Saragovi, priority 2010, dated 2016)

Legend:
nnr5 cells = assay: Pro-NTF killing assay (MTT), nnr5 cells; assay type: cell-based; settings: pro-NTF 50 nM + I-B 20 μM, 72 hours
Protocol: The effect of I-B on the pro-apoptotic function of pro-NGF or pro-BDNF was tested in functional MTT assays measuring cell metabolism (FIG. 1B).
Cells (5,000 cells/well) were cultured in 96-well plates (Falcon, Lincoln Park, N.J.) in normal culture media (RPMI1640, Hepes, Glutamine, 5% serum). Wells were supplemented with NGF, BDNF, pro-NGF, or pro-BDNF (Alomone Labs) (50 nM final), in the presence or absence of I-B (20 μM final). Wells containing all culture conditions but no cells were used as blanks. The growth/survival profile of the cells was quantified using MTT (Sigma) 72 hours after plating. Optical density readings of MTT were done in a Benchmark Plus microplate Spectrophotometer (BioRad) at 595 nm with blanks subtracted.

[1] = test system: retinal ganglion cells (RGCs); assay: ON axotomy model, quantification of surviving RGCs (fluorogold labeled); assay type: in vivo; settings: rat ON axotomy, one intravitreal injection 3 μg, day 14; contralateral normal eye = 100%; control axotomy 10%
Protocol: Wistar rats (female, 250-300 g; Charles River) were kept in a 12 hours dark-light cycle with food and water ad libitum. All animal manipulations were performed between 9 AM and 12 AM. Deep anesthesia was used during cauterization (induction of glaucoma), ON transection, fluorogold labeling, intraocular injection procedures, Optical Coherence Tomography measurements, and euthanasia (ketamine, xylazine, acepromazine injected intraperitoneally: 50/5/1 mg/kg, as per IACUC recommendations). For measuring IOP, light anesthesia was used (a gas mixture of Oxygen, 2% isofluorane mixture, at a rate of 2.5 liter/min, as per IACUC recommendations).
The ON axotomy model in the rat (Bai et al., 2010a) was used. […]
For studies in the glaucoma animal model the injections were performed at days 14 and 21 after cauterization. […] Thus, in this paradigm there is pre-existing damage for 14 days before treatment (measured at ˜8% RGC death (Shi et al., 2007; Shi et al., 2008)); and the treatments require long-lived efficacy in the constant presence of retinal stress due to high IOP. […]
Quantification of labeled RGCs was performed as reported (Shi et al., 2007; Shi et al., 2008). […] Pictures for each freshly flat-mounted retina were taken using a Zeiss fluorescence microscope (Carl Zeiss Meditec, Jena, Germany), with 12 pictures/retina at 20× magnification. […]

TNF-α = assay: Glaucoma model, retinal TNF-α by western blot; assay type: in vivo, rat; settings: intravitreal injection at glaucoma day 14, measured 3 and 5 days later
Protocol: After 14-days of glaucoma eyes were injected intravitreally with p75NTR antagonists, and the levels of TNF-α and α2M were measured three days later (e.g. day 17 of glaucoma) and five days later (e.g. day 19 of glaucoma) (FIG. 3A).
Both retinas of each animal were detergent solubilized, and studied in independent gels standardized to loading control. The ratio of the glaucoma eye ±treatment versus the normal contralateral eye was calculated, and results were averaged ±sem, n=3 animals per group. In glaucoma, all drug treatments were done at day 14 of hypertension. In one group the retinas were harvested at day 17 of glaucoma (3 days after intraocular injection) and in the other group the retinas were harvested at day 19 of glaucoma (5 days after intraocular injection). Normal eyes treated with NGF-A were collected in the indicated days. After SDS-PAGE and western transfer, membranes were immunoblotted with rabbit polyclonal antibodies against TNF-α (Preprotech) or α2M (Santa Cruz) at a 1:3000 dilution. Goat anti-rabbit secondary antibodies conjugated to horseradish peroxidase (Sigma) were used at a 1:10,000 dilution. Loading was controlled with antibodies to β-actin (Sigma). For digital quantification, membranes were scanned and analyzed using ImageJ software.

Question: How did the “cell viability (MTT) in presence of pro-NGF or pro-BDNF” value (nnr5 cells) turn out when `CC(C)NC(=O)N(C(=O)Cn1cnc2c1c(=O)n(C)c(=O)n2C)C(C)C` [I-B, 1,3-Diisopropyl-1-[2-(1,3-dimethyl-2,6-dioxo-1,2,3,6-tetrahydro-purin-7-yl)-acetyl]-urea] was run?
Answer: prevented the loss of cell viability

Question: And the RGCs surviving [1]?
Answer: 37%

Question: And the “TNF-α level in glaucomatous retina, fold-change versus normal retina” value (TNF-α)?
Answer: time-dependent inhibition
